Drawing on patent US9604975B2, “Indolyl-pyridone derivatives having checkpoint kinase 1 inhibitory activity” (Vernalis (R&D) Ltd., priority 2009, dated 2017), this text covers IC50 for 24 compounds.

This test addresses T1, CHK1 (Homo sapiens, UniProt O14757).
T1 construct: His; purchased Invitrogen
T1 sequence (O14757 1-476): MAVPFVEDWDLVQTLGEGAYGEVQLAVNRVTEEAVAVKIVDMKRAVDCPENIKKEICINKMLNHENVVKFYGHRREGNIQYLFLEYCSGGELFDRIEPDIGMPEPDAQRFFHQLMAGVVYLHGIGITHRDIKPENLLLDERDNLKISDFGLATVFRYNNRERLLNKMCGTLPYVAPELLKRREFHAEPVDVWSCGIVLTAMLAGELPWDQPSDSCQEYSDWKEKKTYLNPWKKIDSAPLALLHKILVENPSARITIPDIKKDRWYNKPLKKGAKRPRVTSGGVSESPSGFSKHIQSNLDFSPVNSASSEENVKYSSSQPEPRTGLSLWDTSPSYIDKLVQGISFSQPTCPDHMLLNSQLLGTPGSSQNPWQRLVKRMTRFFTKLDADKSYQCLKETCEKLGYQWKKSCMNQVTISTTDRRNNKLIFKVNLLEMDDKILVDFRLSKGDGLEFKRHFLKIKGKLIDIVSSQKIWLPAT
The experiment in a line: CHK1 Enzyme Assay (phosphorylation of Chktide peptide, 33P-ATP filter assay). It is filed as biochemical. Particulars: 12.5 nM His-CHK1, 0.01 mM ATP, 40 minutes at 30° C.; read-out: CHK1 Enzyme Activity (IC50 range). The method, boiled down: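 Filter-binding radiometric readout of 33P incorporation into Chktide (14.8 μM), after a 40 min, 30 °C reaction at pH 7.5 (50 mM Hepes-NaOH, 0.1 mg/mL BSA). The reaction contained 12.5 nM His-tagged CHK1, inhibitor and 0.01 mM cold ATP plus labelled ATP.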
One may read the IC50 as the midpoint of a concentration-inhibition curve. Regarding `CC(C)(C)c1ccc(Cn2cc(C(=O)Nc3c[nH]c(=O)c(-c4cc5cc(OCCN6CCCCC6)ccc5[nH]4)c3)cn2)cc1` [Example 151, 1-(4-tert-Butylbenzyl)-1H-pyrazole-4-carboxylic acid {5-[5-(2-piperidin-1-ylethoxy)-1H-indol-2-yl)-6-oxo-1,6-dihydropyridin-3-yl}-amide], the IC50 is less than 100 nM.

For `CC(C)c1ccc(Cn2cc(C(=O)Nc3c[nH]c(=O)c(-c4cc5cc(OCCN6CCCCC6)ccc5[nH]4)c3)cn2)cc1` [Example 152, 1-(4-Isopropylbenzyl)-1H-pyrazole-4-carboxylic acid {5-[5-(2-piperidin-1-ylethoxy)-1H-indol-2-yl)-6-oxo-1,6-dihydropyridin-3-yl}-amide], the IC50 is less than 100 nM.

On to `CC(C)(C)c1ccc(Cn2cc(C(=O)Nc3c[nH]c(=O)c(-c4cc5cc(OCCCN6CCCCC6)ccc5[nH]4)c3)cn2)cc1` [Example 153, 1-(4-tert-Butylbenzyl)-1H-pyrazole-4-carboxylic acid-{6-oxo-5-[5-(3-piperidin-1-ylpropoxy)-1H-indol-2-yl]-1,6-dihydropyridin-3-yl}-amide], for which the 50% inhibitory concentration (IC50) is less than 100 nM.

As to `CCN(CC)CCOc1ccc2[nH]c(-c3cc(NC(=O)c4cnn(Cc5ccc(C(C)(C)C)cc5)c4)c[nH]c3=O)cc2c1` [Example 154], the 50% inhibitory concentration (IC50) lay in the range of 500 to 1500 nM.

With `CCN(CC)CCOc1ccc2[nH]c(-c3cc(NC(=O)c4cnn(Cc5ccc(C(C)C)cc5)c4)c[nH]c3=O)cc2c1` [Example 155, 1-(4-Isopropylbenzyl)-1H-pyrazole-4-carboxylic acid {5-[5-(2-diethylaminoethoxy)-1H-indol-2-yl)-6-oxo-1,6-dihydropyridin-3-yl}-amide], the 50% inhibitory concentration (IC50) was less than 100 nM.

In the case of `CN(C)CCCOc1ccc2[nH]c(-c3cc(NC(=O)c4cnn(Cc5ccc(C(C)(C)C)cc5)c4)c[nH]c3=O)cc2c1` [Example 156, 1-(4-tert-butylbenzyl)-1H-pyrazole-4-carboxylic acid {5-[5-(3-dimethylaminopropoxy)-1H-indol-2-yl)-6-oxo-1,6-dihydropyridin-3-yl}-amide], the IC50 was less than 100 nM.

With `CC(C)c1ccc(Cn2cc(C(=O)Nc3c[nH]c(=O)c(-c4cc5cc(OCCCN(C)C)ccc5[nH]4)c3)cn2)cc1` [Example 157, 1-(4-Isopropylbenzyl)-1H-pyrazole-4-carboxylic acid {5-[5-(3-dimethylaminopropoxy)-1H-indol-2-yl)-6-oxo-1,6-dihydropyridin-3-yl}-amide], the IC50 is less than 100 nM.

As to `NCCOc1cccc2[nH]c(-c3cc(NC(=O)c4cnn(Cc5ccccc5)c4)c[nH]c3=O)cc12` [Example 158, 1-Benzyl-1H-pyrazole-4-carboxylic acid {5-[4-(2-amino-ethoxy)-1H-indol-2-yl]-6-oxo-1,6-dihydro-pyridin-3-yl}-amide], the IC50 was less than 100 nM.

With `CN(C)CCOc1cccc2[nH]c(-c3cc(NC(=O)c4cnn(Cc5ccccc5)c4)c[nH]c3=O)cc12` [Example 159, 1-Benzyl-1H-pyrazole-4-carboxylic acid {5-[4-(2-dimethylamino-ethoxy)-1H-indol-2-yl]-6-oxo-1,6-dihydro-pyridin-3-yl}-amide], the half-inhibitory concentration (IC50) is less than 100 nM.

`C[C@@H](c1ccccc1)n1cc(C(=O)Nc2c[nH]c(=O)c(-c3cc4ccccc4[nH]3)c2)cn1` [Example 160, 1-((S)-1-Phenyl-ethyl)-1H-pyrazole-4-carboxylic acid [5-(1H-indol-2-yl)-6-oxo-1,6-dihydro-pyridin-3-yl]-amide]: the half-maximal inhibitory concentration (IC50) was in the range of 100 to 500 nM.

Consider `C[C@H](c1ccccc1)n1cc(C(=O)Nc2c[nH]c(=O)c(-c3cc4ccccc4[nH]3)c2)cn1` [Example 161, 1-((R)-1-Phenyl-ethyl)-1H-pyrazole-4-carboxylic acid [5-(1H-indol-2-yl)-6-oxo-1,6-dihydro-pyridin-3-yl]-amide], for which the 50% inhibitory concentration (IC50) is less than 100 nM.

As to `C[C@@H](c1ccccc1)n1cc(C(=O)Nc2c[nH]c(=O)c(-c3cc4cc(CN5CCCCC5)ccc4[nH]3)c2)cn1` [Example 162, 1-((S)-1-Phenyl-ethyl)-1H-pyrazole-4carboxylic acid [6-oxo-5-(5-piperidin-1-ylmethyl-1H-indol-2-yl)-1,6-dihydro-pyridin-3-yl]-amide], the IC50 was less than 100 nM.

Regarding `C[C@@H]1CN(Cc2ccc3[nH]c(-c4cc(NC(=O)c5cnn([C@@H](C)c6ccccc6)c5)c[nH]c4=O)cc3c2)C[C@H](C)O1` [Example 163, 1-((S)-1-Phenyl-ethyl)-1H-pyrazole-4-carboxylic acid {5-[5-(cis-2,6-dimethyl-morpholin-4-ylmethyl)-1H-indol-2-yl]-6-oxo-1,6-dihydro-pyridin-3-yl}-amide], the IC50 was less than 100 nM.

Turning to `C[C@@H](c1ccccc1)n1cc(C(=O)Nc2c[nH]c(=O)c(-c3cc4cc(CN5CCC(F)CC5)ccc4[nH]3)c2)cn1` [Example 164, 1-((S)-1-Phenyl-ethyl)-1H-pyrazole-4-carboxylic acid {5-[5-(4-fluoro-piperidin-1-ylmethyl)-1H-indol-2-yl]-6-oxo-1,6-dihydro-pyridin-3-yl}-amide], the 50% inhibitory concentration (IC50) was less than 100 nM.

Regarding `CC1CCN(Cc2ccc3[nH]c(-c4cc(NC(=O)c5cnn([C@@H](C)c6ccccc6)c5)c[nH]c4=O)cc3c2)CC1` [Example 165, 1-((S)-1-Phenyl-ethyl)-1H-pyrazole-4-carboxylic acid {5-[5-(4-methyl-piperidin-1-ylmethyl)-1H-indol-2-yl]-6-oxo-1,6-dihydro-pyridin-3-yl}-amide], the IC50 is less than 100 nM.

As for `CC1CCN(Cc2ccc3[nH]c(-c4cc(NC(=O)c5cnn([C@H](C)c6ccccc6)c5)c[nH]c4=O)cc3c2)CC1` [Example 167, 1-((R)-1-Phenyl-ethyl)-1H-pyrazole-4-carboxylic acid {5-[5-(4-methyl-piperidin-1-ylmethyl)-1H-indol-2-yl]-6-oxo-1,6-dihydro-pyridin-3-yl}-amide], the IC50 is less than 100 nM.

Turning to `C[C@H](c1ccccc1)n1cc(C(=O)Nc2c[nH]c(=O)c(-c3cc4cc(CN5CCCCC5)ccc4[nH]3)c2)cn1` [Example 168, 1-((R)-1-Phenyl-ethyl)-1H-pyrazole-4carboxylic acid [6-oxo-5-(5-piperidin-1-ylmethyl-1H-indol-2-yl)-1,6-dihydro-pyridin-3-yl]-amide], the IC50 was less than 100 nM.

For the compound `C[C@H](c1ccccc1)n1cc(C(=O)Nc2c[nH]c(=O)c(-c3cc4cc(CN5CCC(F)CC5)ccc4[nH]3)c2)cn1` [Example 169, 1-((R)-1-Phenyl-ethyl)-1H-pyrazole-4-carboxylic acid {5-[5-(4-fluoro-piperidin-1-ylmethyl)-1H-indol-2-yl]-6-oxo-1,6-dihydro-pyridin-3-yl}-amide], the half-inhibitory concentration (IC50) is less than 100 nM.

On to `CN(C)CCN(C)Cc1ccc2[nH]c(-c3cc(NC(=O)c4cnn(Cc5ccccc5)c4)c[nH]c3=O)cc2c1` [Example 170, 1-Benzyl-1H-pyrazole-4-carboxylic acid [5-(5-{1(2-dimethylamino-ethyl)-methyl-aminol-methyl}-1H-indol-2-yl)-6-oxo-1,6-dihydro-pyridin-3-yl]-amide], for which the 50% inhibitory concentration (IC50) is less than 100 nM.

`CN(C)[C@@H]1CCN(Cc2ccc3[nH]c(-c4cc(NC(=O)c5cnn(Cc6ccccc6)c5)c[nH]c4=O)cc3c2)C1` [Example 172, 1-Benzyl-1H-pyrazole-4-carboxylic acid {5-[5-((R)-3-dimethylamino-pyrrolidin-1-ylmethyl)-1H-indol-2-yl]-6-oxo-1,6-dihydro-pyridin-3-yl}-amide]: the IC50 is less than 100 nM.

In the case of `O=C(Nc1c[nH]c(=O)c(-c2cc3cc(CN4CC[C@@H](F)C4)ccc3[nH]2)c1)c1cnn(Cc2ccccc2)c1` [Example 174, 1-Benzyl-1H-pyrazole-4-carboxylic acid {5-[5-((R)-3-fluoro-pyrrolidin-1-ylmethyl)-1H-indol-2-yl]-6-oxo-1,6-dihydro-pyridin-3-yl}-amide], the IC50 is less than 100 nM.

As to `O=C(Nc1c[nH]c(=O)c(-c2cc3cc(CN4CC[C@H](F)C4)ccc3[nH]2)c1)c1cnn(Cc2ccccc2)c1` [Example 175, 1-Benzyl-1H-pyrazole-4-carboxylic acid {5-[5-((S)-3-fluoro-pyrrolidin-1-ylmethyl)-1H-indol-2-yl]-6-oxo-1,6-dihydro-pyridin-3-yl}-amide], the half-maximal inhibitory concentration (IC50) is less than 100 nM.

For `CC(C)(COc1ccc2[nH]c(-c3cc(NC(=O)c4cnn(Cc5ccccc5)c4)c[nH]c3=O)cc2c1)CN1CCC(F)(F)C1` [Example 181, 1-Benzyl-1H-pyrazole-4-carboxylic acid (5-{5-[3-(3,3-difluoro-pyrrolidin-1-yl)-2,2-dimethyl-propoxy]-1H-indol-2-yl}-6-oxo-1,6-dihydro-pyridin-3-yl)-amide], the IC50 was less than 100 nM.

In the case of `CC(C)(COc1ccc2[nH]c(-c3cc(NC(=O)c4cnn(Cc5ccccc5)c4)c[nH]c3=O)cc2c1)CN1CC[C@@H](F)C1` [Example 182, 1-Benzyl-1H-pyrazole-4-carboxylic acid (5-{5-[3-((R)-3-fluoro-pyrrolidin-1-yl)-2,2-dimethyl-propoxy]-1H-indol-2-yl}-6-oxo-1,6-dihydro-pyridin-3-yl)-amide], the IC50 is less than 100 nM.
